For 17 compounds, CC50 and EC50 results are on record in patent publication US20230107941A1, “HEPATITIS B CAPSID ASSEMBLY MODULATORS” (Venatorx Pharmaceuticals, Inc., priority 2019, published 2023).

The structures appear in SMILES notation. Bounds are passed on as bounds.

Data set [1] can be described thus: In vitro cytotoxicity assay (MTT cell viability) in HepG2 cells. The settings on record: human. The class given is cell-based, human. The gist of the method: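 CC50 was derived by 4-parameter fit of viability relative to vehicle controls, measured as MTT formazan absorbance at 492 nm after 3–4 h of reagent and DMSO solubilization. Before that, HepG2 cells seeded overnight at 20,000/well were incubated 7 days at 37°C with compound from 30 μM down to 1.0 nM in half-log steps.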

Another data set has as its system HBV. The data set is described as follows: In vitro antiviral assay: anti-HBV replication in HepAD38 cells (extracellular HBV DNA by QPCR). The class given is cell-based, hepatitis B virus (genotype D, serotype ayw). The note with it: Hepatitis B virus, HePAD38, 168 h, 7 days incubation, extracellular HBV DNA by QPCR, read-out: Anti-HBV EC50. The gist of the method: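 HepG2-derived HepAD38 cells (HBV genotype D, ayw, tet-repressible CMV) induced by tetracycline withdrawal, treated 7 days at 37 °C with compound (1 μM to 10 pM, 10-fold steps). Supernatant HBV DNA quantified by QPCR against standard curve, percent of DMSO control; EC50 by 4-parameter fit; entecavir positive control.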

`CCc1c(C(=O)Nc2ccc(F)c(C)c2)c(C)c(C(=O)C(=O)N[C@]2(C)CC[C@H](O)CC2)n1C` [Example 107, 2-ethyl-N-(4-fluoro-3-methylphenyl)-5-(2-(((1s,4s)-4-hydroxy-1-methylcyclohexyl)amino)-2-oxoacetyl)-1,4-dimethyl-1H-pyrrole-3-carboxamide]: the CC50 (usually the concentration that lowers cell viability or growth by half) at 7 days in data set [1] was above 30 µM. Moreover, the EC50 (commonly the concentration giving half of the maximal effect) with HBV is below 0.05 µM.
In data set [1], `CCc1c(C(=O)Nc2ccc(F)c(C)c2)c(C)c(C(=O)C(=O)N[C@H]2CC[C@@H](O)CC2)n1C` [Example 108, 2-ethyl-N-(4-fluoro-3-methylphenyl)-5-(2-(((1s,4s)-4-hydroxycyclohexyl)amino)-2-oxoacetyl)-1,4-dimethyl-1H-pyrrole-3-carboxamide] gave a CC50 at 7 days of 5 to 30 µM. Also, the concentration for a half-maximal effect (EC50) in the data set with HBV was below 0.05 µM.
In turn, `Cc1cc(NC(=O)c2c(C)c(C(=O)C(=O)N[C@]3(C)C[C@H](O)C3)n(C)c2C(C)C)ccc1F` [Example 109, N-(4-fluoro-3-methylphenyl)-5-(2-(((1s,3s)-3-hydroxy-1-methylcyclobutyl)amino)-2-oxoacetyl)-2-isopropyl-1,4-dimethyl-1H-pyrrole-3-carboxamide] showed a CC50 at 7 days in data set [1] above 30 µM. In addition, the 50% effective concentration (EC50) with HBV fell in the range of 0.05 to 0.499 µM.
For `Cc1cc(NC(=O)c2c(C)c(C(=O)C(=O)N[C@H]3CC[C@@H](S(C)(=O)=O)CC3)n(C)c2C(C)C)ccc1F` [Example 110, N-(4-fluoro-3-methylphenyl)-2-isopropyl-1,4-dimethyl-5-(2-(((1s,4s)-4-(methylsulfonyl)cyclohexyl)amino)-2-oxoacetyl)-1H-pyrrole-3-carboxamide], in that order: above 30 µM and 0.5 to 1 µM.
The compound `Cc1cc(NC(=O)c2c(C)c(C(=O)C(=O)N[C@]3(C)CC[C@H](O)CC3)n(C)c2C(C)C)ccc1F` [Example 111, N-(4-fluoro-3-methylphenyl)-5-(2-(((1s,4s)-4-hydroxy-1-methylcyclohexyl)amino)-2-oxoacetyl)-2-isopropyl-1,4-dimethyl-1H-pyrrole-3-carboxamide] showed a half-maximal cytotoxic concentration (CC50) at 7 days in data set [1] above 30 µM. For the same compound, the EC50 in the data set on HBV is below 0.05 µM.
`Cc1cc(NC(=O)c2c(C)c(C(=O)C(=O)N[C@H]3CC[C@@H](O)CC3)n(C)c2C(C)C)ccc1F` [Example 112, N-(4-fluoro-3-methylphenyl)-5-(2-(((1s,4s)-4-hydroxycyclohexyl)amino)-2-oxoacetyl)-2-isopropyl-1,4-dimethyl-1H-pyrrole-3-carboxamide] yielded a CC50 at 7 days in data set [1] above 30 µM. Moreover, the EC50 in the data set on HBV fell in the range of 0.05 to 0.499 µM.
In data set [1], `Cc1cc(NC(=O)c2c(C)c(C(=O)C(=O)NCC(C)(C)O)n(C)c2C(C)C)ccc1F` [Example 113, N-(4-fluoro-3-methylphenyl)-5-(2-((2-hydroxy-2-methylpropyl)amino)-2-oxoacetyl)-2-isopropyl-1,4-dimethyl-1H-pyrrole-3-carboxamide] showed a half-maximal cytotoxic concentration (CC50) at 7 days above 30 µM. The concentration giving a half-maximal response (EC50) in the data set with HBV was in the range of 0.05 to 0.499 µM.
In turn, `Cc1cc(NC(=O)c2c(C)c(C(=O)C(=O)N[C@]3(C)CC[C@H](O)CC3)n(C)c2C2CC2)ccc1F` [Example 114, 2-cyclopropyl-N-(4-fluoro-3-methylphenyl)-5-(2-(((1s,4s)-4-hydroxy-1-methylcyclohexyl)amino)-2-oxoacetyl)-1,4-dimethyl-1H-pyrrole-3-carboxamide] displayed a half-maximal cytotoxic concentration (CC50) at 7 days in data set [1] above 30 µM. For the same compound, the concentration giving a half-maximal response (EC50) in the data set on HBV was below 0.05 µM.
For the compound `Cc1cc(NC(=O)c2c(C)c(C(=O)C(=O)N[C@H]3CC[C@@H](O)CC3)n(C)c2C2CC2)ccc1F` [Example 115, 2-cyclopropyl-N-(4-fluoro-3-methylphenyl)-5-(2-(((1s,4s)-4-hydroxycyclohexyl)amino)-2-oxoacetyl)-1,4-dimethyl-1H-pyrrole-3-carboxamide], the CC50 at 7 days in data set [1] is above 30 µM. For the same compound, the EC50 in the data set on HBV was below 0.05 µM.
`Cc1cc(NC(=O)c2c(C)c(C(=O)C(=O)N[C@]3(C)C[C@H](O)C3)n(C)c2C2CCCCC2)ccc1F` [Example 116, 2-cyclohexyl-N-(4-fluoro-3-methylphenyl)-5-(2-(((1s,3s)-3-hydroxy-1-methylcyclobutyl)amino)-2-oxoacetyl)-1,4-dimethyl-1H-pyrrole-3-carboxamide] gave a CC50 at 7 days in data set [1] above 30 µM. Also, the EC50 in the data set on HBV lay in the range of 0.5 to 1 µM.
The compound `Cc1cc(NC(=O)c2c(C)c(C(=O)C(=O)N[C@H]3CC[C@@H](S(C)(=O)=O)CC3)n(C)c2C2CCCCC2)ccc1F` [Example 117, 2-cyclohexyl-N-(4-fluoro-3-methylphenyl)-1,4-dimethyl-5-(2-(((1s,4s)-4-(methylsulfonyl)cyclohexyl)amino)-2-oxoacetyl)-1H-pyrrole-3-carboxamide] registered a CC50 at 7 days in data set [1] above 30 µM. The EC50 in the data set with HBV was above 1 µM.
For `Cc1cc(NC(=O)c2c(C)c(C(=O)C(=O)N[C@]3(C)CC[C@H](O)CC3)n(C)c2C2CCCCC2)ccc1F` [Example 118, 2-cyclohexyl-N-(4-fluoro-3-methylphenyl)-5-(2-(((1s,4s)-4-hydroxy-1-methylcyclohexyl)amino)-2-oxoacetyl)-1,4-dimethyl-1H-pyrrole-3-carboxamide], in that order: above 30 µM and 0.5 to 1 µM.
For `Cc1cc(NC(=O)c2c(C)c(C(=O)C(=O)N[C@H]3CC[C@@H](O)CC3)n(C)c2C2CCCCC2)ccc1F` [Example 119, 2-cyclohexyl-N-(4-fluoro-3-methylphenyl)-5-(2-(((1s,4s)-4-hydroxycyclohexyl)amino)-2-oxoacetyl)-1,4-dimethyl-1H-pyrrole-3-carboxamide], in data set [1], the 50% cytotoxic concentration (CC50) at 7 days fell in the range of 5 to 30 µM. In addition, the EC50 in the data set with HBV is 0.5 to 1 µM.
Taken in the same sequence, the figures for `Cc1cc(NC(=O)c2c(C)c(C(=O)C(=O)NCC(C)(C)O)n(C)c2C2CCCCC2)ccc1F` [Example 120, 2-cyclohexyl-N-(4-fluoro-3-methylphenyl)-5-(2-((2-hydroxy-2-methylpropyl)amino)-2-oxoacetyl)-1,4-dimethyl-1H-pyrrole-3-carboxamide] were above 30 µM and above 1 µM.
Taken in the same sequence, the figures for `Cc1cc(NC(=O)c2c(C)c(C(=O)C(=O)N[C@H]3CC[C@@H](OCC(=O)NCCOCCOCCOCCOCCOCCOCCOCCNC(=O)CCCCC4SCC5NC(=O)NC54)CC3)n(C)c2C)ccc1F` (stereo partly shown) [Example 121, 5-(2-(((1s,4s)-4-((2,28-dioxo-32-(2-oxohexahydro-1H-thieno[3,4-d]imidazol-4-yl)-6,9,12,15,18,21,24-heptaoxa-3,27-diazadotriacontyl)oxy)cyclohexyl)amino)-2-oxoacetyl)-N-(4-fluoro-3-methylphenyl)-1,2,4-trimethyl-1H-pyrrole-3-carboxamide] were above 30 µM and above 1 µM.
`Cc1cc(NC(=O)c2c(C)c(C(=O)C(=O)N[C@@H]3CC[C@H](O)C[C@@H]3F)n(C)c2C)ccc1F` [Example 122, N-(4-fluoro-3-methylphenyl)-5-(2-(((1R,2S,4S)-2-fluoro-4-hydroxycyclohexyl)amino)-2-oxoacetyl)-1,2,4-trimethyl-1H-pyrrole-3-carboxamide] returned a CC50 at 7 days in data set [1] of 5 to 30 µM. Further, in the data set with HBV, the EC50 was below 0.05 µM.
Compound `Cc1cc(NC(=O)c2c(C)c(C(=O)C(=O)N[C@]3(C)C[C@H](O)C3)n(C)c2CC2CC2)ccc1F` [Example 123, 2-(cyclopropylmethyl)-N-(4-fluoro-3-methylphenyl)-5-(2-(((1s,3s)-3-hydroxy-1-methylcyclobutyl)amino)-2-oxoacetyl)-1,4-dimethyl-1H-pyrrole-3-carboxamide] registered a CC50 at 7 days in data set [1] above 30 µM. In addition, in the data set with HBV, the EC50 is below 0.05 µM.
